For 50 compounds, EC50 results are on record in patent US12187706B2, “NLRP3 modulators” (INNATE TUMOR IMMUNITY, INC., priority 2019, dated 2025).

The assay addresses T1, NLRP3 (Homo sapiens, UniProt Q96P20).
T1 construct: host or cells: PMA-differentiated THP-1 cells
As to the kind of experiment: Measurement of IL-1β production in PMA-differentiated THP-1 cells (NLRP3 hIL1B). In kind it is cell-based. The procedure:
Measurement of IL-1β Production in PMA-Differentiated THP-1 Cells
THP-1 cells were purchased from the American Type Culture Collection and sub-cultured according to instructions from the supplier. Prior to experiments, cells were cultured in RPMI 1640 containing 10% heat inactivated FBS, penicillin (100 units/ml) and streptomycin (100 μg/ml), and maintained in log phase prior to experimental setup. Prior to the experiment THP-1 were treated with PMA (Phorbol 12-myristate 13-acetate) (10 μg/ml) for 24 hours. The day of the experiment the media was removed and attaching cells were treated with trypsin for 2 minutes, cells were then collected, washed with PBS (phosphate buffer saline), spin down, resuspended in 2% heat inactivated FBS with RPMI at a concentration of 1×10^6 cells/ml, and 100 μl was plated in a 96 well plate. Compounds were dissolved in dimethyl sulfoxide (DMSO) and added to the culture medium to achieve desired concentration (e.g. 100, 30, 10, 3, 1, 0.3 or 0.1 μM). Cells were incubated with compounds for 4 hours. Cell free supernatant was collected and the production of IL-1β was evaluated by ELISA. A vehicle only control was run concurrently with each experiment. Final DMSO concentration was 1%.
Measurement of IL-1β Production in PMA-Differentiated THP-1 Cells (Alternative Procedure)
THP-1 cells were purchased from the American Type Culture Collection and sub-cultured according to instructions from the supplier. Prior to experiments, cells were cultured in RPMI 1640 containing 10% heat inactivated FBS, penicillin (100 units/ml), streptomycin (100 μg/ml), HEPES (10 mM) and sodium pyruvate (1 mM) and maintained in log phase prior to experimental setup. Prior to the experiment, THP-1 cells were treated with PMA (Phorbol 12-myristate 13-acetate) (20 μg/ml) overnight. The day of the experiment, the media was removed and attached cells were treated with trypsin for 2 minutes, cells were then collected, washed with PBS (phosphate buffer saline), pelleted by centrifugation and resuspended in 2% heat inactivated FBS with RPMI at a concentration of 50,000 cells/well in a 384 well plate. Cell free supernatant was collected and the production of IL-1β was evaluated by ELISA. Compounds were dissolved in dimethyl sulfoxide (DMSO) and added to the culture medium to achieve desired concentration (e.g. 100, 30, 10, 3, 1, 0.3 or 0.1 μM). Cells were incubated with compounds for 2 hours. A vehicle only control was run concurrently with each experiment. Final DMSO concentration was 1%.
Measurement of IL-1β Production—hTRF Protocol (Second Alternative Procedure)
Serial dilutions of compounds in DMSO were added to low volume 384 well plates at 100 nl/well using an ECHO 550 acoustic dispenser (Labcyte) to achieve final starting concentration of 10 μM in assay.
THP-1 cells in RPMI (Gibco, 11875) media with 10% FBS at a density of 1×10^6 cell/ml in a T175 flask were treated with a final concentration of phorbol 12-myristate 13-acetate (PMA) (Sigma, P1585) of 50 ng/ml overnight at 37° C. at 5% CO2 for differentiation. Cells were harvested the next day after rinsing well with dPBS using 0.5% trypsin. A cell solution was prepared of 1×10^6 cells/ml for 50,000 cells in 50 μl/well in RPMI media with 2% FBS. Cells were plated using a multichannel pipette onto the compound dilutions in Greiner, 384 well, black clear bottom tissue culture treated plates (781090). The plates were incubated in 37° C. incubator at 5% CO2 for 2 hours.
After the 2 hour incubation, the cell plates were spun in the centrifuge for 5 minutes at 1200 rpm. Using the Felix (CyBio), 8 μl of the supernatant was transferred to 384 well, low volume, white proxy plates. (Perkin Elmer, 6008230). A human IL1beta hTRF kit was used to analyze the supernatant (CISBIO, 62HIL1BPEG). The kit instructions were followed for preparing the IL1Beta standard curve and then the antibodies from the kit were diluted 1:40 rather than 1:20 as kit instructed.

As usually defined, the EC50 is the concentration that produces a half-maximal response. Low readings indicate higher potency in that assay, high ones lower potency in that assay.

T1 sequence (Q96P20 whole entry): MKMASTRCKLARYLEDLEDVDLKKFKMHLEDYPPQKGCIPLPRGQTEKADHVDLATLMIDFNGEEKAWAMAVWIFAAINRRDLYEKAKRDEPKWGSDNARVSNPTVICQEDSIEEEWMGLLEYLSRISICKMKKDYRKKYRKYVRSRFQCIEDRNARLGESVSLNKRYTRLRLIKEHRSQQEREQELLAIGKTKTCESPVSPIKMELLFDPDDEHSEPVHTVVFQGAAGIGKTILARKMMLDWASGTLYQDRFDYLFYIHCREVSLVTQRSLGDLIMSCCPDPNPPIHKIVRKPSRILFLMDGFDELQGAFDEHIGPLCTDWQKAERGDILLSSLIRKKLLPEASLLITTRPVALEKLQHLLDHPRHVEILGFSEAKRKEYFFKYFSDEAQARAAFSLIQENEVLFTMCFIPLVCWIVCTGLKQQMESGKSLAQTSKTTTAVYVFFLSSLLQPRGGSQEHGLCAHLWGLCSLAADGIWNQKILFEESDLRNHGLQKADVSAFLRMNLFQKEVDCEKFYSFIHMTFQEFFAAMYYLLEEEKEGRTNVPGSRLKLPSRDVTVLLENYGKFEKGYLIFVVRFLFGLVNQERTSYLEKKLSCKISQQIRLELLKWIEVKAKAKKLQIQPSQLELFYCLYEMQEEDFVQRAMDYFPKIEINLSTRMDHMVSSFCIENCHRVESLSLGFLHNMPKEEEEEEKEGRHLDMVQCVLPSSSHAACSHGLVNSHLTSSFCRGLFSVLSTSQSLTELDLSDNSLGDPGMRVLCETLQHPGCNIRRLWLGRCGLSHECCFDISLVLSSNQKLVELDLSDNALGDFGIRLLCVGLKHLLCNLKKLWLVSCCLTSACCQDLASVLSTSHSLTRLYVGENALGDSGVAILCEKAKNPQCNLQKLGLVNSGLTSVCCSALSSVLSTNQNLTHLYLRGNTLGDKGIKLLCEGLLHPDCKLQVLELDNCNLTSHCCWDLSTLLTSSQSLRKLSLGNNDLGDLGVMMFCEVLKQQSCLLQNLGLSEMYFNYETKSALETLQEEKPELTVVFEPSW

The compound `Nc1nc(NCCO)c2ccc(-c3ccn[nH]3)cc2n1` [Example 45] yielded an EC50 of 450 nM.

`C[C@]1(O)CC[C@@H](Nc2nc(N)nc3cc(-c4ccn[nH]4)ccc23)CC1` [Example 90] came in with an EC50 of 830 nM.

`Nc1nc(N[C@H]2CCCC[C@H]2CO)c2ccc(-c3ccn[nH]3)cc2n1` (racemic) [Example 57] yielded an EC50 of 800 nM. This EC50 and that of the compound before are within 1.5-fold of each other.

For `Nc1nc(NCCN2CCOCC2)c2ccc(-c3ccn[nH]3)cc2n1` [Example 157], the EC50 came to 1320 nM.

`Nc1nc(Nc2ccn(CCO)n2)c2ccc(-c3ccn[nH]3)cc2n1` [Example 115] gave an EC50 of 18000 nM.

On to `Nc1nc(NCc2cncnc2)c2c(F)cc(-c3cc[nH]n3)cc2n1` [Example 128], for which the EC50 came out at 830 nM.

In the case of `Nc1nc(NCC(O)CC(F)(F)F)c2ccc(-c3ccn[nH]3)cc2n1` (centres unmarked) [Example 41], the EC50 stood at 760 nM.

The compound `Nc1nc(NC2CC2)c2ccc(-c3cc[nH]n3)cc2n1` [Example 193] had an EC50 of 100 nM.

Compound `Nc1nc(NCC(F)(F)CO)c2ccc(-c3ccn[nH]3)cc2n1` [Example 88] came in with an EC50 of 220 nM.

`CC(C)(O)C(O)CNc1nc(N)nc2cc(-c3ccn[nH]3)ccc12` (racemic) [Example 8, rac-1-((2-amino-7-(1H-pyrazol-5-yl)quinazolin-4-yl)amino)-3-methylbutane-2,3-diol] returned an EC50 of 2150 nM. This EC50 lies about 9.8-fold higher than the previous one.

`Nc1nc(N[C@H]2COCC[C@@H]2O)c2ccc(-c3ccn[nH]3)cc2n1` [Example 53] came in with an EC50 of 1350 nM.

In turn, `Cc1cc(C)c(CNc2nc(N)nc3cc(-c4ccn[nH]4)ccc23)c(=O)[nH]1` [Example 143] showed an EC50 of 1230 nM.

`Nc1nc(N[C@@H]2CCC[C@@H]2O)c2ccc(-c3ccn[nH]3)cc2n1` [Example 30]: the EC50 came to 300 nM.

The compound `Cn1ncnc1COc1nc(N)nc2cc(-c3ccn[nH]3)ccc12` [Example 7, 4-((1-methyl-1H-1,2,4-triazol-5-yl)methoxy)-7-(1H-pyrazol-5-yl)quinazolin-2-amine] showed an EC50 of 4460 nM. This EC50 lies about 15-fold higher than the previous one.

As for `Nc1nc(NC(CO)c2ncc[nH]2)c2ccc(-c3ccn[nH]3)cc2n1` (centres unmarked) [Example 34], the midpoint of the response, the EC50, lay at 7670 nM.

`Nc1nc(NCc2cccnn2)c2ccc(-c3ccn[nH]3)cc2n1` [Example 142]: the EC50 was found to be 510 nM. Compared with the last compound, the EC50 is about 15-fold lower.

`N#C[C@H]1CC[C@H](Nc2nc(N)nc3cc(-c4ccn[nH]4)ccc23)CC1` [Example 182] gave an EC50 of 130 nM.

In turn, `CC(CCO)Nc1nc(N)nc2cc(-c3ccn[nH]3)ccc12` (single isomer, unassigned) [Example 201, 3-((2-amino-7-(1H-pyrazol-5-yl)quinazolin-4-yl)amino)butan-1-ol] gave an EC50 of 70 nM.

Consider `Nc1nc(N[C@@H]2CCCC[C@@H]2O)c2ccc(-c3ccn[nH]3)cc2n1` [Example 68], for which the EC50 was found to be 1100 nM.

Take `Nc1nc(NCc2ncccc2F)c2ccc(-c3ccn[nH]3)cc2n1` [Example 170]: the EC50 came to 200 nM.

The compound `Nc1nc(NCCCO)c2c(F)cc(-c3ccn[nH]3)cc2n1` [Example 15, 3-((2-amino-5-fluoro-7-(1H-pyrazol-3-yl)quinazolin-4-yl)amino)propan-1-ol] had an EC50 of 240 nM.

In turn, `Nc1nc(N[C@H]2CCOC2)c2ccc(-c3ccn[nH]3)cc2n1` [Example 23, (S)-7-(1H-pyrazol-5-yl)-N4-(tetrahydrofuran-3-yl)quinazoline-2,4-diamine] had a half-maximal effective concentration (EC50) of 670 nM. Compared with the last compound, the EC50 is about 2.8-fold higher.

As for `COCC(O)CNc1nc(N)nc2cc(-c3ccn[nH]3)ccc12` (centres unmarked) [Example 72], the EC50 amounted to 530 nM.

As for `Nc1nc(NOCCO)c2ccc(-c3ccn[nH]3)cc2n1` [Example 186], the EC50 was determined as 3000 nM.

As for `Nc1nc(NCC2(O)CC2)c2ccc(-c3cc[nH]n3)cc2n1` [Example 197], the EC50 turned out to be 310 nM.

In turn, `Nc1nc(N[C@@H]2C[C@H]2c2cccnc2)c2ccc(-c3ccn[nH]3)cc2n1` (single isomer, unassigned) [Example 163, 7-(1H-pyrazol-5-yl)-N4-((trans)-2-(pyridin-3-yl)cyclopropyl)quinazoline-2,4-diamine] gave an EC50 of 650 nM.

`Nc1nc(N[C@H]2COC[C@@H](O)C2)c2ccc(-c3ccn[nH]3)cc2n1` (single isomer, unassigned) [Example 12] registered an EC50 of 3920 nM.

Compound `Nc1nc(NCC2CCC(=O)N2)c2ccc(-c3ccn[nH]3)cc2n1` (centres unmarked) [Example 43] had an EC50 of 1040 nM.

`CCCCC(CCO)Nc1nc(N)nc2cc(-c3ccn[nH]3)ccc12` (single isomer, unassigned) [Example 101, 3-((2-amino-7-(1H-pyrazol-5-yl)quinazolin-4-yl)amino)heptan-1-ol] had an EC50 of 830 nM.

Compound `CN(C)CC(O)CNc1nc(N)nc2cc(-c3ccn[nH]3)ccc12` (centres unmarked) [Example 40] gave an EC50 of 2240 nM.

Consider `CC(C)(C)Nc1nc(N)nc2cc(-c3ccn[nH]3)ccc12` [Example 180], for which the response was half-maximal at 710 nM (EC50).

For the compound `Nc1nc(N[C@@H]2CCCOC2)c2ccc(-c3ccn[nH]3)cc2n1` [Example 104], the EC50 came out at 390 nM.

In the case of `CC(CO)(CO)Nc1nc(N)nc2cc(-c3ccn[nH]3)ccc12` [Example 83], it took 2410 nM to reach a half-maximal effect (EC50). This EC50 is about 6.2-fold higher than that of the compound before.

For `CC(C)(CO)CCCNc1nc(N)nc2cc(-c3ccn[nH]3)ccc12` [Example 91], a half-maximal effect (EC50) was put at 1300 nM.

Regarding `CCn1cc(CNc2nc(N)nc3cc(-c4ccn[nH]4)ccc23)nn1` [Example 190], a half-maximal response (EC50) required 4890 nM.

Compound `Nc1nc(NCC2CC2(F)F)c2ccc(-c3cc[nH]n3)cc2n1` (single isomer, unassigned) [Example 199, N4-((2,2-Difluorocyclopropyl)methyl)-7-(1H-pyrazol-3-yl)quinazoline-2,4-diamine] showed an EC50 of 80 nM.

`Nc1nc(NCCCCCO)c2ccc(-c3ccn[nH]3)cc2n1` [Example 86] showed an EC50 of 220 nM.

In turn, `COCC1(CNc2nc(N)nc3cc(-c4cc[nH]n4)ccc23)CC1` [Example 196] registered an EC50 of 230 nM.

As to `Nc1nc(Nc2cc(CCO)[nH]n2)c2ccc(-c3ccn[nH]3)cc2n1` [Example 116], the response was half-maximal at 500 nM (EC50).

In turn, `Nc1nc(NCc2ccccn2)c2ccc(-c3ccn[nH]3)cc2n1` [Example 171] showed an EC50 of 270 nM.

The compound `Nc1nc(NCCO)c2c(F)cc(-c3cc[nH]n3)cc2n1` [Example 126] showed an EC50 of 760 nM.

Regarding `CC(C)(CO)CNc1nc(N)nc2cc(-c3ccn[nH]3)ccc12` [Example 73], the EC50 came out at 230 nM.

In turn, `Nc1nc(NC[C@H](O)CO)c2ccc(-c3ccn[nH]3)cc2n1` [Example 70] gave an EC50 of 800 nM.

`Nc1nc(Nc2ccon2)c2ccc(-c3ccn[nH]3)cc2n1` [Example 113] yielded an EC50 of 2230 nM.

As to `Cc1cnc(CNc2nc(N)nc3cc(-c4ccn[nH]4)ccc23)cn1` [Example 80], the EC50 is 710 nM.

In turn, `Cn1cnc(CNc2nc(N)nc3cc(-c4ccn[nH]4)ccc23)n1` [Example 189] registered an EC50 of 1410 nM.

For the compound `CCn1cc(CNc2nc(N)nc3cc(-c4ccn[nH]4)ccc23)cn1` [Example 168], the EC50 was 1280 nM. The EC50 values of the last two compounds are within 1.5-fold of each other.

For the compound `Nc1nc(NCc2nc[nH]n2)c2ccc(-c3ccn[nH]3)cc2n1` [Example 32], the EC50 is 640 nM.

Turning to `Cc1noc(C)c1CNc1nc(N)nc2cc(-c3ccn[nH]3)ccc12` [Example 81], the EC50 was determined as 1200 nM.

Regarding `CC(C)(O)CCNc1nc(N)nc2cc(-c3ccn[nH]3)ccc12` [Example 89], the EC50 is 460 nM.
